Read-outs that look alike come from different tables or passages of the source.
Test: Iontophoretic administration of salmon calcitonin to beagles, blood level by RIA
Format: in vivo, beagle (dog)
Conditions: for level at 0.5 h: beagle, dog, blood, pulse depolarization iontophoresis 0.2 mA for 30 min, measured 30 minutes later, beagles under pentobarbital anesthesia, read-out: blood concentration of salmon calcitonin
Protocol: Beagles were put under pentobarbital anesthesia. A positive electrode pad containing salmon calcitonin 1000 unit (an extraction pad of an electrode structure applied to the mucous membrane of the mouth) was applied to the mucous membrane of the mouth of each beagle. A negative electrode (a counter pad of an electrode structure applied to the skin) was applied to the ear of the beagle. A pulse depolarization type iontophoresis system was used to apply a 0.2-mA current for 30 minutes. Then, 30 minutes later, the level of salmon calcitonin in the blood was measured. An RIA kit (ROIK6003, Peninsula) was used for quantification.
As in the case with Example 3, salmon calcitonin was administered to beagles under pentobarbital anesthesia. However, the positive electrode pad was not applied to the mucous membrane of the mouth but to the skin (belly). The negative electrode was applied to the ear. The other conditions are similar to those for Example 3.
FIG. 4 is a graph showing the blood concentration observed 30 minutes after the application of the present system to the mucous membrane of the mouth (Example 3) and to the skin (Comparative Example 1). The blood concentration was about 530 pg/ml 30 minutes after salmon calcitonin was administered to the dog via the mucous membrane of the mouth (Example 3). The blood concentration was about 90 pg/ml 30 minutes after salmon calcitonin was administered to the dog via the skin (Comparative Example 1). Calcitonin is ionized, but owing to its […], calcitonin permeates through the living body as a result of the flow of water caused by iontophoresis instead of its direct electric driving force.

level at 0.5 h (topical or ocular, Comparative Example 1: positive electrode pad (1000 unit) on skin (belly)): ~0.09 ng/mL
level at 0.5 h (Example 3: positive electrode pad (1000 unit) on mucous membrane of the mouth): ~0.53 ng/mL
absorptivity of mucous membrane relative to skin (iontophoresis, mucous membrane vs skin): six
SMILES: CC(C)C[C@H](NC(=O)[C@H](CCCCN)NC(=O)CNC(=O)[C@H](CC(C)C)NC(=O)[C@@H](NC(=O)[C@@H]1CSSC[C@H](N)C(=O)N[C@@H](CO)C(=O)N[C@@H](CC(N)=O)C(=O)N[C@@H](CC(C)C)C(=O)N[C@@H](CO)C(=O)N[C@@H]([C@@H](C)O)C(=O)N1)C(C)C)C(=O)N[C@@H](CO)C(=O)N[C@@H](CCC(N)=O)C(=O)N[C@@H](CCC(=O)O)C(=O)N[C@@H](CC(C)C)C(=O)N[C@@H](Cc1c[nH]cn1)C(=O)N[C@@H](CCCCN)C(=O)N[C@@H](CC(C)C)C(=O)N[C@@H](CCC(N)=O)C(=O)N[C@H](C(=O)N[C@@H](Cc1ccc(O)cc1)C(=O)N1CCC[C@H]1C(=O)N[C@@H](CCCNC(=N)N)C(=O)N[C@H](C(=O)N[C@@H](CC(N)=O)C(=O)N[C@H](C(=O)NCC(=O)N[C@@H](CO)C(=O)NCC(=O)N[C@H](C(=O)N1CCC[C@H]1C(N)=O)[C@@H](C)O)[C@@H](C)O)[C@@H](C)O)[C@@H](C)O [salmon calcitonin]

From patent US7018345B2, “Iontophoresis system” (Hisamitsu Pharmaceutical Co., Inc., priority 2002, dated 2006)
